# “And” between values parts separate entries of the source, which are not always exact repeats. Identical values can stand only once.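 Grown in 96-well plates, cells were treated for 48 hours with each compound at five concentrations. Insufficient inhibition: endpoint recorded as highest concentration tested. Abbreviation: GI50, concentration required for 50% inhibition of growth. TGI marks complete inhibition of growth.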
# How the values were obtained:
# Experiment in all cases: growth of human tumour cells (NCI), 48 h
# [1] = test system: RXF 393 renal
# [2] = test system: MCF7 breast
# [3] = test system: M14 melanoma
# [4] = test system: SF-268 CNS
# [5] = test system: SF-539 CNS
# [6] = test system: SN12C renal
# [7] = test system: SK-MEL-2 melanoma
# [8] = test system: HCT-116 colon
# [9] = test system: IGROV1 ovarian
# [10] = test system: OVCAR-8 ovarian
# [11] = test system: MALME-3M melanoma
# [12] = test system: UACC-257 melanoma
# [13] = test system: MDA-MB-231 breast
# [14] = test system: KM12 colon
# [15] = test system: NCI-H460 lung
# [16] = test system: EKVX NSCLC
# [17] = test system: CAKI-1 renal
# [18] = test system: HL-60(TB) leukemia
# [19] = test system: HS 578T breast
# [20] = test system: A498 renal
# [21] = test system: OVCAR-4 ovarian
# [22] = test system: MOLT-4 leukemia
# [23] = test system: SNB-19 CNS
# [24] = test system: NCI-H522 lung
# [25] = test system: U251 CNS
# [26] = test system: K-562 leukemia
# [27] = test system: LOX IMVI melanoma
# [28] = test system: OVCAR-3 ovarian
# [29] = test system: NCI/ADR-RES ovarian
# [30] = test system: HT29 colon
# [31] = test system: UACC-62 melanoma
# [32] = test system: OVCAR-5 ovarian
# [33] = test system: A549 NSCLC
# [34] = test system: DU-145 prostate
# [35] = test system: NCI-H226 lung
# [36] = test system: UO-31 renal
# [37] = test system: MDA-N
# [38] = test system: HCT-15 colon
# [39] = test system: HOP-92 NSCLC
# [40] = test system: SR leukemia
# [41] = test system: PC-3 prostate
# [42] = test system: NCI-H23 lung
# [43] = test system: BT-549 breast
# [44] = test system: SW-620 colon
# [45] = test system: SK-MEL-5 melanoma
# [46] = test system: 786-0 renal
# [47] = test system: ACHN renal
# [48] = test system: DMS 114 small cell lung
# [49] = test system: MDA-MB-435
# [50] = test system: SF-295 CNS
# [51] = test system: HCC-2998 colon
# [52] = test system: HOP-62 NSCLC
# [53] = test system: SK-MEL-28 melanoma
# [54] = test system: TK-10 renal
# [55] = test system: KM20L2 colon
# [56] = test system: RPMI-8226 leukemia
# [57] = test system: SK-OV-3 ovarian
# [58] = test system: SNB-78 CNS
# [59] = test system: SNB-75 CNS
# [60] = test system: CCRF-CEM leukemia
# [61] = test system: COLO 205 colon
# [62] = test system: DMS 273 small cell lung
# [63] = test system: LXFL 529 NSCLC
# [64] = test system: M19-MEL melanoma
# [65] = test system: T-47D breast
smiles,measurement,setting,value
Cc1c(CNc2ccc(C(=O)NC(CC(=O)O)C(=O)O)cc2)ccc2nc(N)nc(N)c12 (centres undefined),GI50,[1],> 1 mM
same,TGI,[1],> 1000 µM
same,TGI,[2],> 1000 µM
same,TGI,[3],> 1000 µM
same,TGI,[4],> 1000 µM
same,TGI,[5],> 1000 µM
same,TGI,[6],> 1000 µM
same,GI50,[7],> 1 mM
same,TGI,[7],> 1000 µM
same,TGI,[8],> 1000 µM
same,TGI,[9],> 1000 µM
same,TGI,[10],> 1000 µM
same,GI50,[11],< 10 nM
same,TGI,[11],> 1000 µM
same,TGI,[12],> 1000 µM
same,GI50,[13],> 1 mM
same,TGI,[13],> 1000 µM
same,TGI,[14],> 1000 µM
same,TGI,[15],> 1000 µM
same,GI50,[16],> 1 mM
same,TGI,[16],> 1000 µM
same,GI50,[17],48.6 µM
same,TGI,[17],> 1000 µM
same,TGI,[18],> 1000 µM
same,TGI,[19],> 1000 µM
same,TGI,[20],> 1000 µM
same,GI50,[21],> 1 mM
same,TGI,[21],> 1000 µM
same,TGI,[22],> 1000 µM
same,TGI,[23],> 1000 µM
same,GI50,[24],570 nM
same,TGI,[24],> 73.8 µM and 691 µM
same,GI50,[25],226 nM
same,TGI,[25],> 1000 µM
same,TGI,[26],> 1000 µM
same,TGI,[27],> 1000 µM
same,GI50,[28],34.6 µM
same,TGI,[28],> 1000 µM
same,TGI,[29],> 1000 µM
same,TGI,[30],> 1000 µM
same,TGI,[31],> 1000 µM
same,TGI,[32],> 1000 µM
same,TGI,[33],> 1000 µM
same,TGI,[34],> 1000 µM
same,GI50,[35],> 1 mM
same,TGI,[35],> 1000 µM
same,TGI,[36],> 1000 µM
same,TGI,[37],> 1000 µM
same,TGI,[38],> 1000 µM
same,GI50,[39],> 1 mM
same,TGI,[39],> 1000 µM
same,TGI,[40],> 1000 µM
same,GI50,[41],< 10 nM
same,TGI,[41],> 1000 µM
same,TGI,[42],> 1000 µM
same,GI50,[43],> 1 mM
same,TGI,[43],> 1000 µM
same,TGI,[44],> 1000 µM
same,TGI,[45],> 1000 µM
same,TGI,[46],> 1000 µM
same,TGI,[47],> 1000 µM
same,TGI,[48],> 66700 nM
same,TGI,[49],> 1000 µM
same,TGI,[50],> 1000 µM
same,TGI,[51],21.2 µM
same,TGI,[52],> 1000 µM
C[C@H]1NC(=O)C2CCCCN2C(=O)CN(C)C(=O)CNC(=O)C2CCCCN2C(=O)[C@@H](NC(=O)c2nc3ccccc3cc2O)[C@@H](C)NC(=O)C2CCCCN2C(=O)CN(C)C(=O)CNC(=O)[C@@H]2CCCCN2C(=O)C1NC(=O)c1nc2ccccc2cc1O (some centres undefined),TGI,[1],0.199 µM
same,TGI,[3],1.27 µM
same,TGI,[4],0.934 µM
same,TGI,[5],0.698 µM
same,TGI,[6],> 100 µM
same,TGI,[7],0.23 µM
same,TGI,[9],> 100 µM
same,TGI,[10],> 100 µM
same,TGI,[11],0.388 µM
same,TGI,[12],0.537 µM
same,TGI,[14],18.7 µM
same,TGI,[15],> 100 µM
same,TGI,[53],465 nM
same,TGI,[54],> 100 µM
same,TGI,[16],23.2 µM
same,TGI,[17],0.768 µM
same,TGI,[18],4.72 µM
same,TGI,[21],5.48 µM
same,TGI,[22],7.03 µM
same,TGI,[23],2.11 µM
same,TGI,[24],0.494 µM
same,TGI,[55],10.4 µM
same,TGI,[25],36.6 µM
same,TGI,[26],1.1 µM
same,TGI,[27],> 100 µM
same,TGI,[28],0.773 µM
same,TGI,[56],764 nM
same,TGI,[57],> 100 µM
same,TGI,[58],11.5 µM
same,TGI,[30],> 100 µM
same,TGI,[31],0.105 µM
same,TGI,[32],7.55 µM
same,TGI,[33],> 100 µM
same,TGI,[59],0.39 µM
same,TGI,[35],0.383 µM
same,TGI,[36],0.984 µM
same,TGI,[38],> 100 µM
same,TGI,[42],0.69 µM
same,TGI,[44],12.3 µM
same,TGI,[46],31.8 µM
same,TGI,[60],5.16 µM
same,TGI,[48],703 nM
same,TGI,[61],0.641 µM
same,TGI,[62],1070 nM
same,TGI,[50],4.8 µM
same,TGI,[63],646 nM
same,TGI,[64],560 nM
same,TGI,[51],0.479 µM
same,TGI,[52],0.66 µM
Cc1ccc(-c2cc(-c3ccc(Cl)cc3)nc(/N=C3\C(=O)N(CN4CCOCC4)c4ccc(Cl)cc43)n2)cc1,TGI,[1],26.9 µM
same,TGI,[2],79.2 µM
same,TGI,[3],> 100 µM
same,TGI,[4],88.1 µM
same,TGI,[5],59.5 µM
same,TGI,[6],59.1 µM
same,TGI,[7],39.9 µM
same,TGI,[8],40.9 µM
same,TGI,[9],33.1 µM
same,TGI,[10],55.4 µM
same,TGI,[11],> 100 µM
same,TGI,[12],> 100 µM
same,TGI,[13],> 100 µM
same,TGI,[14],56.8 µM
same,TGI,[15],81.2 µM
same,TGI,[53],> 100000 nM
same,TGI,[54],72.2 µM
same,TGI,[16],89.4 µM
same,TGI,[17],85.5 µM
same,TGI,[18],41.4 µM
same,TGI,[19],> 100 µM
same,TGI,[20],56.7 µM
same,TGI,[21],> 100 µM
same,TGI,[22],57 µM
same,TGI,[23],> 100 µM
same,TGI,[24],36.7 µM
same,TGI,[25],36.3 µM
same,TGI,[26],90.9 µM
same,TGI,[27],> 100 µM
same,TGI,[28],> 100 µM
same,TGI,[29],61.3 µM
same,TGI,[56],> 100000 nM
same,TGI,[57],84.4 µM
same,TGI,[30],43.6 µM
same,TGI,[31],93.2 µM
same,TGI,[32],> 100 µM
same,TGI,[33],> 100 µM
same,TGI,[34],47.7 µM
same,TGI,[59],97.1 µM
same,TGI,[35],> 100 µM
same,TGI,[36],60.3 µM
same,TGI,[37],> 100 µM
same,TGI,[38],> 100 µM
same,TGI,[39],62.2 µM
same,TGI,[40],> 100 µM
same,TGI,[41],> 100 µM
same,TGI,[42],57.6 µM
same,TGI,[43],> 100 µM
same,TGI,[44],> 100 µM
same,TGI,[45],38.4 µM
same,TGI,[65],79.8 µM
same,TGI,[46],44.5 µM
same,TGI,[47],48.5 µM
same,TGI,[60],> 100 µM
same,TGI,[61],49.7 µM
same,TGI,[49],65.9 µM
same,TGI,[50],> 100 µM
same,TGI,[51],36.5 µM
same,TGI,[52],51.8 µM

# Source: PubChem BioAssay (NCI)
